Article PMC10154249, “Unique progerin C-terminal peptide ameliorates Hutchinson–Gilford progeria syndrome phenotype by rescuing BUBR1” (Nature Aging, 2023)
Several values for one entry are separate records, joined by “and”; a condition that tells them apart may be missing. Equal values may be shown once.

What was measured:
[1] = test system: muscle of Lmna^G609G/G609G mice; test: Masson staining of muscle (fibrosis); type: in vivo, mouse; conditions: 13 weeks
Procedure: For UPCP injection, 14-day-old Lmna^G609G/G609G mice were injected intraperitoneally with either PBS or UPCP (20 mg kg^–1, every other day) and wild-type mice were injected with PBS. […] Bodyweight and lifespan were monitored after UPCP treatment. The survival rate was analyzed by the Kaplan–Meier method. We only included mice that were of sufficient bodyweight at the start of the experiment, typically at least 80% of the average littermate weight of the same sex and genotype. All animals meeting criteria for inclusion were then divided randomly into three groups according to genotype (Lmna^+/+, Lmna^G609G/G609G-Mock and Lmna^G609G/G609G-UPCP).
For histological analyses, mice of the indicated genotypes were perfused with PBS, then with 4% paraformaldehyde (PFA). Whole organs were incubated in 4% PFA at 4 °C for 16 h. All samples were paraffin embedded and sectioning by Servicebio. Subsequently, the tissues were deparaffinized and rehydrated before hematoxylin-eosin (HE) or Masson staining or immunohistochemistry (IHC). HE staining was performed using an HE Kit (Absin, catalog no. abs9217), and Masson staining was performed using Masson’s Trichrome Stain Kit (Absin, catalog no. abs9347) according to the manufacturer’s instructions. The thickness of the layers or the areas of fibrosis in the tissues were calculated using ImageJ software by a blinded investigator. For IHC, the sections were completed by the Servicebio. The images were acquired by a microscope (Leica DMi8) and analyzed with Leica Application Suite X v.3.6.0.24 (Leica). For BubR1, cytoplasmic staining in cells was scored on the intensity of staining and the proportion of positive cells by a blinded investigator. The intensity of the staining was graded as 0 (negative, no color), 1 (low positive, light yellow), 2 (positive, brown yellow) or 3 (high positive, brown), and the number of positive cells was graded as 0 (<5%), 1 (5–25%), 2 (25–50%), 3 (51–75%) or 4 (>75%). The final score was defined as staining number score multiplied by staining color score. For lamin B1, p21 or IL-6, the proportion of positive cells was used to quantify the expression of protein in tissues by a blinded investigator.

[2] = test system: IMR90 cells; test: Etoposide-, Ras- and H2O2-induced early stage senescence of IMR90 cells; type: cell-based, human; conditions: IMR90, UPCP 6 μM, another 5 days; SA-β-gal, Ki67, Western blot
Description: HGPS is an extremely rare congenital genetic disease, and its treatments are still under theoretical research. […] Also, to investigate the role of UPCP on other senescence models, we used Etoposide, Ras or H2O2 to induce senescence of IMR90 cells, and added UPCP to the cells treated with the drugs mentioned above when the cells just entered early stage senescence. […] Further work aimed at obtaining UPCPs with stronger stability, longer half-life and optimized physical structures are under planning. Therefore, UPCP may have broad application prospects in the treatment of HGPS.
SA-β-gal positive cells was calculated (c). Scale bars: 200 μm. d. Western blot analysis of Lamin B1, CyclinA2, IL-6 and p21 in senescent IMR90 cells with the indicated treatments. e,f.
Immunofluorescence analysis of Ki67 in IMR90 cells with the indicated treatment. Representative […]
≥ 200 cells. Scale bars: 50 μm. For bar and line graphs, data are presented as mean ± SD.
Statistical significance was determined in c and f using two-tailed unpaired Student’s t-test.
Supplementary Data Figure 2. UPCP delays Etoposide, Ras and H2O2 induced early stage cellular senescence. a. […]
and the percentage of the Ki67 positive cells was calculated (f), n ≥ 200 cells. […]
For bar and line graphs, data are presented as mean ± SD. Statistical significance was determined inc and f using two-tailed unpaired Student’s t-test.

[3] = test system: BUBR1 kinetochore localization in H1299 cells; test: Immunofluorescence, abnormal localization of BUBR1 in H1299 cells; type: cell-based; conditions: for Relative percentage of the number of abnormal localization cells of BUBR1: Fig. 3h, H1299, progerin+UPCP, P=0.0202 vs progerin
Procedure: Immunofluorescence was performed as described previously. Cells were plated on cover slips in 12-well plates, left overnight before the treatment. Cells were fixed in 1% formaldehyde in culture medium for 10 min at 37 °C and permeabilized with 0.2% Triton X-100 in PBS for 10 min at room temperature. Cells were washed twice in PBS and blocked for 1 h with 5% BSA in PBS and then incubated with primary antibodies at 4 °C overnight, washed three times in PBS and incubated with secondary antibodies for 1 h at room temperature. Cell nuclei were counterstained with a 500 nM concentration of 4,6-diamidino-2-phenylindole (DAPI) (Sigma). Images were acquired by a fluorescence microscope (OLYMPUS FV-1000, Carl Zeiss LSM880 or Leica DMi8) and analyzed with software NIS-Elements AR v.5.0.1 (Nikon), FLUOVIEW v.4.2b (OLYMPUS), ZEN v.2.3 SP1 (Carl Zeiss) and Leica Application Suite X v.3.6.0.24 (Leica). Cells were quantified by investigators who were blinded to the identity of the analyzed cell.

In the case of “H-YGRKKRRQRRRYNLRSRTVLCGTCGQPADKASASGSGAQSPQNCSIM-OH (cysteines drawn unpaired) [UPCP, unique progerin C-terminal peptide]”, the “fibrosis, muscle” value ([1]; 20 mg kg^–1 i.p. every other day) is reported as “decrease of fibrosis in the muscle”, the “fibrosis area/ total area, muscle” value ([1]; 20 mg kg^–1 i.p., replicate 1) is reported as 0.003895 and 0.3895% and the “fibrosis area, muscle” value ([1]; 20 mg kg^–1 i.p., replicate 1, total area 340.18) is reported as 1.325. The “fibrosis area, muscle” value ([1]; 20 mg kg^–1 i.p., replicate 2, total area 353.151) was 1.196, the “fibrosis area, muscle” value ([1]; 20 mg kg^–1 i.p., replicate 3, total area 365.081) was 2.133 and the “etoposide-, ras- and H2O2-induced early stage cellular senescence” value [2] was “delayed etoposide-, ras- and H2O2-induced early stage cellular senescence modestly”. For the same substance, the “Relative percentage of the number of abnormal localization cells of BUBR1” value (from here on “Relative percentage”) ([3]; replicate 1) was 25%, the “Relative percentage” value ([3]; replicate 2) was 18% and the “Relative percentage” value ([3]; replicate 3) was 27%. For the same substance, the “BUBR1 localization to the kinetochore” value ([3]; H1299 cells, immunofluorescence) was “correctly localized BUBR1 to the kinetochore”.
